Assays:
[1] = Electrochemical measurements (cyclic voltammetry); assay type: physicochemical
Protocol: Electrochemical measurements. Electrochemical measurements were performed at room temperature after purging with nitrogen using 0.1 M tetrabutylammonium hexafluorophosphate (TBAP)/acetonitrile as supporting electrolyte. The working electrode was a glassy carbon (Atomergic Chemetal V25, geometric area of 0.35 cm^2) electrode and the counter electrode was platinum gauze. A nonaqueous Ag/AgNO3 (0.1 M in acetonitrile) reference electrode was contained in a separate compartment connected to the test solution via fine sintered glass disks. The ferrocenium/ferrocene couple was used as the internal standard. The redox properties of the gold(III) porphyrin complexes in non-aqueous medium (CH2Cl2 with 0.1 M nBu4NPF6) have been studied by cyclic voltammetry with glassy carbon and platinum as the working and counter electrodes, respectively. […] The effect of para-substitution on the electrochemical potentials has been examined by Hammett correlation analysis.

[2] = test system: Human Oral Epidermoid Carcinoma (KB-3-1); assay: MTT cytotoxicity, KB-3-1; assay type: cell-based; conditions: MTT, growth inhibition
From the text: Human promyelocytic leukemia (HL-60), human hepatocellular carcinoma (HepG2), Human cervix epitheloid carcinoma cells (HeLa) and human oral epidermoid carcinoma cells (KB-3-1), were obtained from American Type Culture Collection (ATCC) (Rockville, Md.). […] Cell culture flasks and 96 well microtitre plates were from Nalge Nunc hit. Culture medium, other medium constituents and phosphate buffered saline (PBS) were obtained from Gibco BRL (Rockville, Md.). Cell Proliferation Kit I (MTT) was purchased from Roche (Mannheim, Germany).

[3] = test system: human cancer cell lines (HL-60, HepG2, HeLa, KB-3-1, KB-V1, SUNE1, CNE1); assay type: cell-based; conditions: MTT, all studied cell lines; read-out: IC50 values over the panel of cancer cell lines
From the text: Human promyelocytic leukemia (HL-60), human hepatocellular carcinoma (HepG2), Human cervix epitheloid carcinoma cells (HeLa) and human oral epidermoid carcinoma cells (KB-3-1), were obtained from American Type Culture Collection (ATCC) (Rockville, Md.). The multi-drug-resistant variant KB-V1 cell line was obtained by stepwise selections for vinblastine resistance as described by Shen et al., J. Biol. Chem. 261:7762-7770 (1986)], and was generously provided by Dr Michael Gottesman (NIH, Bethesda, Md.). Human nasopharyngeal carcinoma cells (SUNE1 and its cisplatin resistance variant, CNE1) were derived from poorly differentiated NPC in Chinese patients as described by Gu et al., Chin. J. Cancer 2:270-272 (1983), and were generously provided by Dr S. W. Tsao (The University of Hong Kong, Hong Kong, PRC). Cell culture flasks and 96 well microtitre plates were from Nalge Nunc hit. Culture medium, other medium constituents and phosphate buffered saline (PBS) were obtained from Gibco BRL (Rockville, Md.). […]
The anti-cancer activities of the gold(III) porphyrin complexes were evaluated toward some established human cancer cell lines: promyelocytic leukemia (HL-60), hepatocellular carcinoma (HepG2), cervix epitheloid carcinoma (HeLa), epidermoid carcinoma (KB-3-1) and its multi-drug resistant variant (KB-V1), nasopharyngeal carcinoma (SUNE1) and its cisplatin-resistant variant (CNE1). […]

plasmid DNA (pDR2) = assay: Restriction endonuclease (ApaI) fragmentation assay
From the text: Binding of the metalloporphyrin onto a duplex DNA such as plasmid DNA (pDR2) is expected to occupy the binding site of the restriction enzyme ApaI, thereby inhibiting the enzymatic DNA digestion. See Ikeda et al., J. Am. Chem. Soc. 104:296-297 (1982).
After ApaI digestion, (lane B), three bands corresponding to 6.6, 4.4 and 2.0 kbp were observed.

HeLa cells [4] = assay: Confocal microscopic experiment (cell morphology, AO/EB staining); assay type: cell-based, human; conditions: 0.5 μM, 15 h incubation
From the text: Confocal Microscopic Experiment. By examining cell morphology using scanning confocal microscopy, the type of cell death can be recognized. The early phase of apoptosis is characterized by the formation of apoptotic bodies while the integrity of the cell membrane is maintained without cell lysis. On the contrary, necrosis is characterized by cell lysis with the internal cellular components such as DNA being exposed. Using suitable staining agents (ethidium bromide (EB) for DNA and acridine orange (AO) for cell membrane) normal, necrotic and apoptotic cells can be distinguished by laser confocal microscopy. See Chan et al., Inorg. Chem. 41:3161-3171 (2002).
The picture of the cells is depicted in FIG. 12. […] Importantly, no cellular DNA was exposed due to necrosis.

HeLa cells [5] = assay: Flow cytometry annexin V/propidium iodide apoptosis assay; assay type: cell-based, human
From the text: Flow cytometry: The gold(III) porphyrin-induced apoptosis of the HeLa cell line has been further examined by flow cytometry. During the early phase of apoptosis, cells lose the asymmetry of their membrane phospholipids, although the integrity of the cell membrane is maintained. A negatively charged phospholipid, named phosphatidylserine (PS), which is located in the inner part of the plasma membrane, becomes exposed to the cell surface. A phospholipid-binding protein, annexin V (green emissive upon binding), with high affinity binds preferentially to PS. Apoptotic cells therefore can be stained by annexin V before the dying cell changes its morphology and hydrolyzes its DNA. On the other hand, both DNA and the PS would be exposed for necrotic cells. In this case, propidium iodide (PI, red emissive upon binding), can be used to stain selectively the naked DNA. Therefore, both apoptotic and necrotic cells can be discriminated after adding these two staining reagents. For apoptotic cells, only annexin V would stain; for necrotic cells, both annexin V and PI would stain.
For comparison, a control cell culture experiment was performed in the absence of Complex 1a and straurosporine. […] Throughout the flow cytometric experiment, <1% of necrotic cells were observed.

[6] = cyclic voltammetry, 0.1 M nBu4NPF6, glassy carbon, vs Cp2Fe^+/0

C1=Cc2nc1c(-c1ccccc1)c1ccc([n-]1)c(-c1ccccc1)c1nc(c(-c3ccccc3)c3ccc([n-]3)c2-c2ccccc2)C=C1.[Au+3].[Cl-] [Complex 1a]
Couple I (first reduction couple) [1, 6]: −1.00 V
Couple II (second reduction couple) [1, 6]: −1.48 V
ΔE1o (E^0Y − E^0H), couple I ([1]; relative to Y=H (Complex 1a)): 0 V
ΔE2^0 (E^0Y − E^0H), couple II ([1]; relative to Y=H (Complex 1a)): 0 V
IC50 [2]: 200 nM
IC50 [3]: 100 to 800 nM
effect on ApaI digestion of pDR2 (plasmid DNA (pDR2); Complex:DNA = 0.1:1 (lane C)): partial DNA digestion was observed
effect on ApaI digestion of pDR2 (plasmid DNA (pDR2); Complex:DNA bp = 1:1 (lane D)): inhibition of the DNA digestion was observed
cell morphology (type of cell death) (HeLa cells [4]): living cells and apoptotic cells were observed
cells that underwent apoptosis (HeLa cells [5]; 6 h of incubation): 24%
cells died via apoptosis (HeLa cells [5]; 15 h of incubation): 57%
annexin V emission (HeLa cells [5]; after treatment (Complex 1a 6 and 15 h; straurosporine 15 h)): the magnitude of the annexin V emission was enhanced
necrotic cells (HeLa cells [5]; throughout the flow cytometric experiment): < 1%

— patent publication US20040063681A1, “Methods for using gold (III) complexes as anti-tumor and anti-HIV agents” (priority 2002, published 2004)
